Laboratory results taken from patent US8927717B1, “Thiochromeno[2,3-c]quinolin-12-one derivatives, preparation method and application thereof” (National Defense Medical Center, priority 2014, dated 2015).

Assays:
Assay type in all cases: cell-based
RXF 393 = conditions: RXF 393; 10^−5 molar
COLO 205 = conditions: COLO 205; 10^−5 molar
786-0 = conditions: 786-0; 10^−5 molar
DU-145 = conditions: DU-145; 10^−5 molar
NCI-H226 = conditions: NCI-H226; 10^−5 molar
SK-MEL-28 = conditions: SK-MEL-28; 10^−5 molar
LOX IMVI = conditions: LOX IMVI; 10^−5 molar
BT-549 = conditions: BT-549; 10^−5 molar
HT29 = conditions: HT29; 10^−5 molar
SNB-75 = conditions: SNB-75; 10^−5 molar
60 cancer cell lines = assay: NCI 60-cell screen, SRB, whole panel (mean, delta, range); conditions: 10^−5 molar; for Growth percent, Delta: delta over panel; for Growth percent, Mean: mean over panel; for Growth percent, Range: range over panel
SK-OV-3 = conditions: SK-OV-3; 10^−5 molar
HL-60(TB) = conditions: HL-60(TB); 10^−5 molar
MDA-MB-435 = conditions: MDA-MB-435; 10^−5 molar
OVCAR-8 = conditions: OVCAR-8; 10^−5 molar
K-562 = conditions: K-562; 10^−5 molar
UO-31 = conditions: UO-31; 10^−5 molar
HOP-62 = conditions: HOP-62; 10^−5 molar
CCRF-CEM = conditions: CCRF-CEM; 10^−5 molar
SNB-19 = conditions: SNB-19; 10^−5 molar
TK-10 = conditions: TK-10; 10^−5 molar
RPMI-8226 = conditions: RPMI-8226; 10^−5 molar
A549/ATCC = conditions: A549/ATCC; 10^−5 molar
SF-268 = conditions: SF-268; 10^−5 molar
PC-3 = conditions: PC-3; 10^−5 molar
NCI-H460 = conditions: NCI-H460; 10^−5 molar
OVCAR-5 = conditions: OVCAR-5; 10^−5 molar
UACC-62 = conditions: UACC-62; 10^−5 molar
MCF7 = conditions: MCF7; 10^−5 molar
NCI-H522 = conditions: NCI-H522; 10^−5 molar
HS 578T = conditions: HS 578T; 10^−5 molar
NCI-H23 = conditions: NCI-H23; 10^−5 molar
MALME-3M = conditions: MALME-3M; 10^−5 molar
KM12 = assay: cells; conditions: KM12; 10^−5 molar
MOLT-4 = conditions: MOLT-4; 10^−5 molar
A498 = conditions: A498; 10^−5 molar
SK-MEL-5 = conditions: SK-MEL-5; 10^−5 molar
MDA-MB-231/ATCC = conditions: MDA-MB-231/ATCC; 10^−5 molar
U251 = conditions: U251; 10^−5 molar

O=c1c2cc(Cl)ccc2sc2c(NCc3ccc4c(c3)OCO4)nc3ccccc3c12 [Compound N27, 6-((Benzo[d][1,3]dioxol-5-ylmethyl)amino)-10-chloro-12H-thiochromeno[2,3-c]quinolin-12-one]
Growth percent (RXF 393): 74.20%
Growth percent (COLO 205): 87.63%
Growth percent (786-0): 95.83%
Growth percent (DU-145): 72.44%
Growth percent (NCI-H226): 53.50%
Growth percent (SK-MEL-28): 88.24%
Growth percent (LOX IMVI): 78.69%
Growth percent (BT-549): 111.06%
Growth percent (HT29): 82.91%
Growth percent (SNB-75): 57.14%
Growth percent, Delta (60 cancer cell lines): 36.65%
Growth percent, Mean (60 cancer cell lines): 81.18%
Growth percent, Range (60 cancer cell lines): 73.26%
Growth percent (SK-OV-3): 82.87%
Growth percent (HL-60(TB)): 112.12%
Growth percent (MDA-MB-435): 91.64%
Growth percent (OVCAR-8): 79.45%
Growth percent (K-562): 80.37%
Growth percent (UO-31): 80.98%
Growth percent (HOP-62): 78.01%
Growth percent (CCRF-CEM): 88.86%
Growth percent (SNB-19): 97.62%
Growth percent (TK-10): 116.79%
Growth percent (RPMI-8226): 96.35%
Growth percent (A549/ATCC): 104.74%
Growth percent (SF-268): 93.24%
Growth percent (PC-3): 78.54%
Growth percent (NCI-H460): 76.71%
Growth percent (OVCAR-5): 84.38%
Growth percent (UACC-62): 72.96%
Growth percent (MCF7): 43.53%
Growth percent (NCI-H522): 78.43%
Growth percent (HS 578T): 70.49%
Growth percent (NCI-H23): 79.93%
Growth percent (MALME-3M): 81.64%
Growth percent (KM12): 87.96%
Growth percent (MOLT-4): 87.55%
Growth percent (A498): 75.91%
Growth percent (SK-MEL-5): 79.86%
Growth percent (MDA-MB-231/ATCC): 54.65%
Growth percent (U251): 81.03%

O=c1c2cc(Cl)ccc2sc2c(NCCc3ccccc3)nc3ccccc3c12 [Compound N30, 10-Chloro-6-(phenethylamino)-12H-thiochromeno[2,3-c]quinolin-12-one]
Growth percent (RXF 393): 96.74%
Growth percent (COLO 205): 100.02%
Growth percent (786-0): 108.00%
Growth percent (DU-145): 100.17%
Growth percent (NCI-H226): 77.00%
Growth percent (SK-MEL-28): 98.94%
Growth percent (LOX IMVI): 89.03%
Growth percent (BT-549): 106.85%
Growth percent (HT29): 109.15%
Growth percent (SNB-75): 68.76%
Growth percent, Delta (60 cancer cell lines): 32.31%
Growth percent, Mean (60 cancer cell lines): 93.22%
Growth percent, Range (60 cancer cell lines): 61.70%
Growth percent (SK-OV-3): 102.16%
Growth percent (HL-60(TB)): 105.68%
Growth percent (MDA-MB-435): 106.06%
Growth percent (OVCAR-8): 95.61%
Growth percent (K-562): 82.82%
Growth percent (UO-31): 75.82%
Growth percent (HOP-62): 103.19%
Growth percent (CCRF-CEM): 114.29%
Growth percent (SNB-19): 100.6%
Growth percent (TK-10): 122.13%
Growth percent (RPMI-8226): 77.36%
Growth percent (A549/ATCC): 88.44%
Growth percent (SF-268): 101.32%
Growth percent (PC-3): 87.25%
Growth percent (NCI-H460): 95.11%
Growth percent (OVCAR-5): 102.03%
Growth percent (UACC-62): 74.67%
Growth percent (MCF7): 60.91%
Growth percent (NCI-H522): 93.93%
Growth percent (HS 578T): 87.62%
Growth percent (NCI-H23): 89.89%
Growth percent (MALME-3M): 122.61%
Growth percent (KM12): 90.99%
Growth percent (MOLT-4): 87.33%
Growth percent (A498): 83.22%
Growth percent (SK-MEL-5): 89.49%
Growth percent (MDA-MB-231/ATCC): 79.55%
Growth percent (U251): 96.78%

COc1ccc(CCNc2nc3ccccc3c3c(=O)c4cc(Cl)ccc4sc23)cc1 [Compound N31, 10-Chloro-6-((4-methoxyphenethyl)amino)-12H-thiochromeno[2,3-c]quinolin-12-one]
Growth percent (RXF 393): 88.50%
Growth percent (COLO 205): 105.41%
Growth percent (786-0): 100.71%
Growth percent (DU-145): 107.03%
Growth percent (NCI-H226): 72.39%
Growth percent (SK-MEL-28): 99.41%
Growth percent (LOX IMVI): 87.78%
Growth percent (BT-549): 105.24%
Growth percent (HT29): 120.78%
Growth percent (SNB-75): 74.50%
Growth percent, Delta (60 cancer cell lines): 39.45%
Growth percent, Mean (60 cancer cell lines): 93.38%
Growth percent, Range (60 cancer cell lines): 78.64%
Growth percent (SK-OV-3): 96.11%
Growth percent (HL-60(TB)): 94.27%
Growth percent (MDA-MB-435): 104.49%
Growth percent (OVCAR-8): 97.83%
Growth percent (K-562): 91.76%
Growth percent (UO-31): 72.12%
Growth percent (HOP-62): 90.07%
Growth percent (CCRF-CEM): 100.93%
Growth percent (SNB-19): 96.74%
Growth percent (TK-10): 132.57%
Growth percent (RPMI-8226): 99.98%
Growth percent (A549/ATCC): 93.49%
Growth percent (SF-268): 100.14%
Growth percent (PC-3): 84.95%
Growth percent (NCI-H460): 98.14%
Growth percent (OVCAR-5): 100.83%
Growth percent (UACC-62): 80.17%
Growth percent (MCF7): 59.13%
Growth percent (NCI-H522): 93.69%
Growth percent (HS 578T): 87.49%
Growth percent (NCI-H23): 92.72%
Growth percent (MALME-3M): 99.74%
Growth percent (KM12): 109.46%
Growth percent (MOLT-4): 82.02%
Growth percent (A498): 99.56%
Growth percent (SK-MEL-5): 85.38%
Growth percent (MDA-MB-231/ATCC): 82.31%
Growth percent (U251): 98.72%
